According to patent US20240382483A1, “HETEROCYCLIC EGFR INHIBITORS FOR USE IN THE TREATMENT OF CANCER” (Blueprint Medicines Corporation, priority 2021, published 2024):
Structures can show the parent of a compound that is named as a salt.

Legend:
EGFR (L858R T790M C797S) = molecular target: T1, EGFR (L858R T790M C797S) (Homo sapiens, UniProt P00533, C797S/L858R/T790M); assay: Biochemical EGFR inhibition assay (Caliper mobility shift), EGFR LRTMCS; details: LRTMCS (PH) IC50 (nM) @ 1 mM ATP (Num), EGFR LRTMCS mutant
T1 construct: purchased SignalChem E10-122VG
In short: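 Kinase reactions proceed at 25° C. to 10%–20% conversion of total peptide, are terminated with 35 mM EDTA, and the phosphopeptide is resolved from substrate by electrophoretic mobility shift. Apparent IC50 values come from plotting percent activity against log compound concentration.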

[1] = molecular target: T2, intracellular phosphorylation of EGFR in NCI-H1975 cell line that harbors the EGFR L858R T790M mutations (Homo sapiens, UniProt P00533, L858R/T790M); assay: NCI-H1975 pEGFR AlphaLISA assay; type: cell-based; details: NCI-H1975 cells (EGFR L858R T790M), p-EGFR (Tyr1068), 4-5 hours incubation; read-out: Ext pEGFR H1975 GMean IC50 (nM) Protocol: @Pharmaron AlphaLISA (Num)
T2 construct: NCI-H1975 cell line that harbors the EGFR L858R T790M mutations (ATCC, CRL-5908); host or cells: NCI-H1975
Description: On the next day, the test compounds and DMSO control were added into H1975 cell plate followed by incubation at 37C/5% CO2 for 4-5 hours. […] Then 5 μL of a donor bead mix was added to each well followed by overnight incubation at room temperature in dark. On the next day, the plate was read at a compatible plate reader to obtain pEGFR signal. Percent of pEGFR inhibition was plotted against log concentration of compounds to generate IC50 values.

T1 sequence (P00533 25-1210 T790M/C797S/L858R): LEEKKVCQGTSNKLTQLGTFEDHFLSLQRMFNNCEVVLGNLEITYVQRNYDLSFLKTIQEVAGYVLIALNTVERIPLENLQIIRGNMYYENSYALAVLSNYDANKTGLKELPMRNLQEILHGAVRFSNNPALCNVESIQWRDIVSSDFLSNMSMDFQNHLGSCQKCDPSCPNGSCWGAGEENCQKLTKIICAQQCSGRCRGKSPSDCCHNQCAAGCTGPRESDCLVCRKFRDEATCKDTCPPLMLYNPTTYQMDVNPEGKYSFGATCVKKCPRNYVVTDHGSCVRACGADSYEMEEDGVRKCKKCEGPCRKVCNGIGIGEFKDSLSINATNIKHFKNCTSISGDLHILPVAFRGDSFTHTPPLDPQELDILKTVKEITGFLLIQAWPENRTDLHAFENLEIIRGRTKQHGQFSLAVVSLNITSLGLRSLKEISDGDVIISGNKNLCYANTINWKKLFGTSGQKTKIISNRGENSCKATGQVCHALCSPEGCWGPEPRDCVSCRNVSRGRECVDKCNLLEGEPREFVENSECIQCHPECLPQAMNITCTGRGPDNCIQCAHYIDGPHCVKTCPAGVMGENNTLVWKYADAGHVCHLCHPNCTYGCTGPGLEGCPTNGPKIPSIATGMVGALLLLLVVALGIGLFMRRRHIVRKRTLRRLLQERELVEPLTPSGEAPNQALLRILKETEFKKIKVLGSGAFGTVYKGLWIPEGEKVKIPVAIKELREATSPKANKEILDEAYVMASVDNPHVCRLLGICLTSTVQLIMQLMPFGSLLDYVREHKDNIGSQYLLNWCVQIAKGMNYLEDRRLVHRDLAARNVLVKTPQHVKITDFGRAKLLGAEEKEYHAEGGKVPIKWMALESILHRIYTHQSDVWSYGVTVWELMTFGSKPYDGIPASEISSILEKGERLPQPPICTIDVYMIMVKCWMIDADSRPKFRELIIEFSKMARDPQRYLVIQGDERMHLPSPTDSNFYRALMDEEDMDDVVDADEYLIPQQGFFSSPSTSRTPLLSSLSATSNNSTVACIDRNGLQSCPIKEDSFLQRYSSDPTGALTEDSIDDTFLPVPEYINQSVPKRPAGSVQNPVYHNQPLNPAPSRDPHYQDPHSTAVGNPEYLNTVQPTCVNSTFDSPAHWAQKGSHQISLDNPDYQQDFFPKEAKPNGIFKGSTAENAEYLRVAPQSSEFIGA
T2 sequence (P00533 25-1210 T790M/L858R): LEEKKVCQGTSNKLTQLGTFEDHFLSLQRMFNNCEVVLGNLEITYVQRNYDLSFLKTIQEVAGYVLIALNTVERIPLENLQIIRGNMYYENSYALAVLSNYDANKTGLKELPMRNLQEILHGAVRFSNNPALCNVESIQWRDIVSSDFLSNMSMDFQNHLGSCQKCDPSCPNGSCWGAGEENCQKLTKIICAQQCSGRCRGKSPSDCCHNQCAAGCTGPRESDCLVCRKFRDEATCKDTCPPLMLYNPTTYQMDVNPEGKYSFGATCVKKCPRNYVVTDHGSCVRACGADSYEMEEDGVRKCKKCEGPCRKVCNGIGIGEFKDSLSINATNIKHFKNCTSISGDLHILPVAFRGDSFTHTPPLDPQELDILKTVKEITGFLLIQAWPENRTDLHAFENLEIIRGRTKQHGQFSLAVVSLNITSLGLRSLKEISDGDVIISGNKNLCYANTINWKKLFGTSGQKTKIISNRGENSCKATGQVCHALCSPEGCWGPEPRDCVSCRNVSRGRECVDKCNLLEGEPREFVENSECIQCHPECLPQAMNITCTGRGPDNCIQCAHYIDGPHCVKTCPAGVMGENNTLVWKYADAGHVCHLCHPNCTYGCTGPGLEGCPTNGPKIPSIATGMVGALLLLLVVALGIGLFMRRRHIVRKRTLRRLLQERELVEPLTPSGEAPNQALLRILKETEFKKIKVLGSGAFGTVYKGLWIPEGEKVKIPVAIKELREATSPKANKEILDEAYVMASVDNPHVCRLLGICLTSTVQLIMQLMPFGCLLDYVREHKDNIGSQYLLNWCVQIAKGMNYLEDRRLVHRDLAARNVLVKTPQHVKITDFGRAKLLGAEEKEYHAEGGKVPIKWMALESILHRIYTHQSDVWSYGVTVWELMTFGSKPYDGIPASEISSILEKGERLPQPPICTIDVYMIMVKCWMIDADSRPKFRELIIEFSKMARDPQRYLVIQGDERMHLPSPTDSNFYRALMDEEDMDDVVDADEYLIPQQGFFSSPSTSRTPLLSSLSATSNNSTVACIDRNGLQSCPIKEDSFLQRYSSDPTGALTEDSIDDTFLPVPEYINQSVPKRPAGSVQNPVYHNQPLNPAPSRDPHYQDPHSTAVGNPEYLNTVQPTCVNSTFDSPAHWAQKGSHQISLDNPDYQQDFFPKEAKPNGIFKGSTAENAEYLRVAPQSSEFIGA

| IC50 (EGFR (L858R T790M C797S)) | IC50 [1] | Compound |
| --- | --- | --- |
| < 15 nM | 10 to 20 nM | CC(C)c1cnc(N2CC(C(F)F)C2)c2cnc(Nc3ccnc(N4CC[C@@H](O)[C@@](C)(F)C4)n3)cc12 [Example 55, (3S,4R)-1-(4-((8-(3-(difluoromethyl)azetidin-1-yl)-5-isopropyl-2,7-naphthyridin-3-yl)amino)pyrimidin-2-yl)-3-fluoro-3-methylpiperidin-4-ol] |
| < 15 nM | > 50 nM | CC(C)c1cnc(N2C[C@@H](F)[C@@H](F)C2)c2cnc(Nc3ccnc(N4CC[C@@H](O)[C@@](C)(F)C4)n3)cc12 [Example 56, (3S,4R)-1-(4-((8-(cis-3,4-difluoropyrrolidin-1-yl)-5-isopropyl-2,7-naphthyridin-3-yl)amino)pyrimidin-2-yl)-3-fluoro-3-methylpiperidin-4-ol] |
| < 15 nM | 20 to 30 nM | CC(C)c1cnc(N2CCC(F)(F)C2)c2cnc(Nc3ccnc(N4CC[C@@H](O)[C@@](C)(F)C4)n3)cc12 [Example 57, (3S,4R)-1-(4-((8-(3,3-difluoropyrrolidin-1-yl)-5-isopropyl-2,7-naphthyridin-3-yl)amino)pyrimidin-2-yl)-3-fluoro-3-methylpiperidin-4-ol] |
| < 15 nM | 10 to 20 nM | CC(C)c1cnc(N2CC(C#N)C2)c2cnc(Nc3ccnc(N4CC[C@@H](O)[C@@](C)(F)C4)n3)cc12 [Example 58, 1-(6-((2-((3S,4R)-3-fluoro-4-hydroxy-3-methylpiperidin-1-yl)pyrimidin-4-yl)amino)-4-isopropyl-2,7-naphthyridin-1-yl)azetidine-3-carbonitrile] |
| < 15 nM | 10 to 20 nM | CC(C)c1cnc(N2CC3(C2)CC3(F)F)c2cnc(Nc3ccnc(N4CC[C@@H](O)[C@@](C)(F)C4)n3)cc12 [Example 59, (3S,4R)-1-(4-((8-(1,1-difluoro-5-azaspiro[2.3]hexan-5-yl)-5-isopropyl-2,7-naphthyridin-3-yl)amino)pyrimidin-2-yl)-3-fluoro-3-methylpiperidin-4-ol] |
| < 15 nM | 30 to 50 nM | CC(C)c1cnc(N2CC(CO)C2)c2cnc(Nc3ccnc(N4CC[C@@H](O)[C@@](C)(F)C4)n3)cc12 [Example 61, (3S,4R)-3-fluoro-1-(4-((8-(3-(hydroxymethyl)azetidin-1-yl)-5-isopropyl-2,7-naphthyridin-3-yl)amino)pyrimidin-2-yl)-3-methylpiperidin-4-ol] |
| < 15 nM | 30 to 50 nM | CC(C)c1cnc(N2CC(O)C2)c2cnc(Nc3ccnc(N4CC[C@@H](O)[C@@](C)(F)C4)n3)cc12 [Example 62, (3S,4R)-3-fluoro-1-(4-((8-(3-hydroxyazetidin-1-yl)-5-isopropyl-2,7-naphthyridin-3-yl)amino)pyrimidin-2-yl)-3-methylpiperidin-4-ol] |
| 15 to 20 nM | 20 to 30 nM | CC(C)c1cnc(N2CCC3(C2)CC3(F)F)c2cnc(Nc3ccnc(N4CC[C@@H](O)[C@@](C)(F)C4)n3)cc12 (stereo partly drawn) [Example 63, (3S,4R)-1-(4-((8-(1,1-difluoro-5-azaspiro[2.4]heptan-5-yl)-5-isopropyl-2,7-naphthyridin-3-yl)amino)pyrimidin-2-yl)-3-fluoro-3-methylpiperidin-4-ol] |
| < 15 nM | 30 to 50 nM | COCCN1CC2(CCN2c2ncc(C(C)C)c3cc(Nc4ccnc(N5CC[C@@H](O)[C@@](C)(F)C5)n4)ncc23)C1 [Example 64, (3S,4R)-3-fluoro-1-(4-((5-isopropyl-8-(6-(2-methoxyethyl)-1,6-diazaspiro[3.3]heptan-1-yl)-2,7-naphthyridin-3-yl)amino)pyrimidin-2-yl)-3-methylpiperidin-4-ol] |
| 20 to 30 nM | 30 to 50 nM | COCC1CN(c2ncc(C(C)C)c3cc(Nc4ccnc(N5CC[C@@H](O)[C@@](C)(F)C5)n4)ncc23)C1 [Example 66, (3S,4R)-3-fluoro-1-(4-((5-isopropyl-8-(3-(methoxymethyl)azetidin-1-yl)-2,7-naphthyridin-3-yl)amino)pyrimidin-2-yl)-3-methylpiperidin-4-ol] |
| 15 to 20 nM | > 50 nM | CC(C)c1cnc(N2CC(F)(CO)C2)c2cnc(Nc3ccnc(N4CC[C@@H](O)[C@@](C)(F)C4)n3)cc12 [Example 67, (3S,4R)-3-fluoro-1-(4-((8-(3-fluoro-3-(hydroxymethyl)azetidin-1-yl)-5-isopropyl-2,7-naphthyridin-3-yl)amino)pyrimidin-2-yl)-3-methylpiperidin-4-ol] |

Second part, the compound before the results:

| Compound | IC50 (EGFR (L858R T790M C797S)) | IC50 [1] |
| --- | --- | --- |
| CO[C@H]1CCN(c2nccc(Nc3cc4c(C(C)C)cnc(N5CCC56CN(C)C6)c4cn3)n2)C[C@H]1F [Example 42, N-(2-((3R,4S)-3-fluoro-4-methoxypiperidin-1-yl)pyrimidin-4-yl)-5-isopropyl-8-(6-methyl-1,6-diazaspiro[3.3]heptan-1-yl)-2,7-naphthyridin-3-amine] | 20 to 30 nM | > 50 nM |
| CO[C@H]1CCN(c2nccc(Nc3cc4c(C(C)C)cnc(N5CC(O)C5)c4cn3)n2)C[C@H]1F [Example 44, 1-(6-((2-((3R,4S)-3-fluoro-4-methoxypiperidin-1-yl)pyrimidin-4-yl)amino)-4-isopropyl-2,7-naphthyridin-1-yl)azetidin-3-ol] | < 15 nM | 20 to 30 nM |
| CC(C)c1cnc(N2CCCC2)c2cnc(Nc3ccnc(N4CC[C@@H](O)[C@@](C)(F)C4)n3)cc12 [Example 45, (3S,4R)-3-fluoro-1-(4-((5-isopropyl-8-(pyrrolidin-1-yl)-2,7-naphthyridin-3-yl)amino)pyrimidin-2-yl)-3-methylpiperidin-4-ol] | 20 to 30 nM | > 50 nM |
| CC(C)c1cnc(N2CCC2)c2cnc(Nc3ccnc(N4CC[C@@H](O)[C@@](C)(F)C4)n3)cc12 [Example 46, (3S,4R)-1-(4-((8-(azetidin-1-yl)-5-isopropyl-2,7-naphthyridin-3-yl)amino)pyrimidin-2-yl)-3-fluoro-3-methylpiperidin-4-ol] | < 15 nM | 20 to 30 nM |
| CC(C)c1cnc(N2CC(F)C2)c2cnc(Nc3ccnc(N4CC[C@@H](O)[C@@](C)(F)C4)n3)cc12 [Example 47, (3S,4R)-3-fluoro-1-(4-((8-(3-fluoroazetidin-1-yl)-5-isopropyl-2,7-naphthyridin-3-yl)amino)pyrimidin-2-yl)-3-methylpiperidin-4-ol] | < 15 nM | 20 to 30 nM |
| CC(C)c1cnc(N2CC[C@H]2CN(C)C)c2cnc(Nc3ccnc(N4CC[C@@H](O)[C@@](C)(F)C4)n3)cc12 [Example 48, (3S,4R)-1-(4-((8-((S)-2-((dimethylamino)methyl)azetidin-1-yl)-5-isopropyl-2,7-naphthyridin-3-yl)amino)pyrimidin-2-yl)-3-fluoro-3-methylpiperidin-4-ol trifluoroacetate] | < 15 nM | 10 to 20 nM |
| CC(C)c1ncc(N2CC(F)C2)c2cnc(Nc3ccnc(N4CC[C@@H](O)[C@@](C)(F)C4)n3)cc12 [Example 49, (3S,4R)-3-fluoro-1-(4-((8-(3-fluoroazetidin-1-yl)-5-isopropyl-2,6-naphthyridin-3-yl)amino)pyrimidin-2-yl)-3-methylpiperidin-4-ol] | 15 to 20 nM | 30 to 50 nM |
| CC(C)c1cnc(N2CC(C)(O)C2)c2cnc(Nc3ccnc(N4CC[C@@H](O)[C@@](C)(F)C4)n3)cc12 [Example 50, (3S,4R)-3-fluoro-1-(4-((8-(3-hydroxy-3-methylazetidin-1-yl)-5-isopropyl-2,7-naphthyridin-3-yl)amino)pyrimidin-2-yl)-3-methylpiperidin-4-ol] | 20 to 30 nM | > 50 nM |
| COC1CN(c2ncc(C(C)C)c3cc(Nc4ccnc(N5CC[C@@H](O)[C@@](C)(F)C5)n4)ncc23)C1 [Example 51, (3S,4R)-3-fluoro-1-(4-((5-isopropyl-8-(3-methoxyazetidin-1-yl)-2,7-naphthyridin-3-yl)amino)pyrimidin-2-yl)-3-methylpiperidin-4-ol] | < 15 nM | 20 to 30 nM |
| CC(C)c1cnc(N2CC[C@H]2CO)c2cnc(Nc3ccnc(N4CC[C@@H](O)[C@@](C)(F)C4)n3)cc12 [Example 52, (3S,4R)-3-fluoro-1-(4-((8-((S)-2-(hydroxymethyl)azetidin-1-yl)-5-isopropyl-2,7-naphthyridin-3-yl)amino)pyrimidin-2-yl)-3-methylpiperidin-4-ol] | < 15 nM | < 10 nM |
| CC(C)c1cnc(N2CCC23COC3)c2cnc(Nc3ccnc(N4CC[C@@H](O)[C@@](C)(F)C4)n3)cc12 [Example 53, (3S,4R)-3-fluoro-1-(4-((5-isopropyl-8-(6-oxa-1-azaspiro[3.3]heptan-1-yl)-2,7-naphthyridin-3-yl)amino)pyrimidin-2-yl)-3-methylpiperidin-4-ol] | < 15 nM | 20 to 30 nM |
| CC(C)c1cnc(N2CC3(CCO3)C2)c2cnc(Nc3ccnc(N4CC[C@@H](O)[C@@](C)(F)C4)n3)cc12 [Example 54, (3S,4R)-3-fluoro-1-(4-((5-isopropyl-8-(1-oxa-6-azaspiro[3.3]heptan-6-yl)-2,7-naphthyridin-3-yl)amino)pyrimidin-2-yl)-3-methylpiperidin-4-ol] | 15 to 20 nM | 20 to 30 nM |
